According to patent US20070225318A1, “Pyrazole Compounds Useful In The Treatment Of Inflammation” (BIOLIPOX AB, priority 2004, published 2007):

The molecules below were run against T1, purified human 15-lipoxygenase (Homo sapiens, UniProt P16050) (assay: 15-lipoxygenase inhibition assay (arachidonic acid oxidation, HPLC readout)). Conditions: not given.
T1 sequence (P16050 1-662): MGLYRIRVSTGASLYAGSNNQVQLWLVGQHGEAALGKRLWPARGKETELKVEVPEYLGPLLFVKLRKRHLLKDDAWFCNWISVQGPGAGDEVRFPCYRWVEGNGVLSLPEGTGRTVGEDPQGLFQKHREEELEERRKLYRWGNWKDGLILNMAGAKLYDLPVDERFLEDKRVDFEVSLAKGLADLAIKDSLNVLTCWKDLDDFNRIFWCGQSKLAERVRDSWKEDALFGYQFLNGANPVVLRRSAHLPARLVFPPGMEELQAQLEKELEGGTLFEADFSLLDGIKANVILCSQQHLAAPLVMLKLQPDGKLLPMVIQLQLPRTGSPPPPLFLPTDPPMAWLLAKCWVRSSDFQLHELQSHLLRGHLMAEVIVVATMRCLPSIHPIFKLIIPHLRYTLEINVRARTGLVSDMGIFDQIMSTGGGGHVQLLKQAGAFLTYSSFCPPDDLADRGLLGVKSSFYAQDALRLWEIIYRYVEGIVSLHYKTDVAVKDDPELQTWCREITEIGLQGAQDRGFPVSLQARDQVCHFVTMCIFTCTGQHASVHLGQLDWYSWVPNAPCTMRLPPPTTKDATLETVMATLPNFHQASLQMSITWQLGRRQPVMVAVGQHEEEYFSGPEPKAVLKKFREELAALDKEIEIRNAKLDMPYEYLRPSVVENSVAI
Format: biochemical
Description: The assay employed takes advantage of the ability of lipoxygenases to oxidize polyunsaturated fatty acids, containing a 1,4-cis-pentadiene configuration, to their corresponding hydroperoxy or hydroxyl derivatives. In this particular assay, the lipoxygenase was a purified human 15-lipoxygenase and the fatty acid was arachidonic acid. The assay is performed at room temperature (20-22° C.) and the following are added to each well in a 96-well microtiter plate:
a) 35 μL phosphate buffered saline (PBS) (pH 7.4);
b) inhibitor (i.e. compound) or vehicle (0.5 μl DMSO);
c) 10 μL of a 10× concentrated solution of 15-lipoxygenase in PBS. The plates are incubated for 5 minutes at room temperature;
The plate is then incubated for 10 minutes at room temperature;
e) the enzymatic reaction is terminated by the addition of 100 μl methanol; and
f) the amount of 15-hydroperoxy-eicosatetraenoic acid or 15-hydroxy-eicosatetraenoic acid is measured by reverse phase HPLC.
`O=C(Nc1ccc2ccccc2n1)c1cc[nH]n1` [Example 2, Pyrazole-3-carboxylic acid quinolin-2-ylamide] was tested, and the IC50 was 0.33 µM.

Same assay, conditions: arachidonic acid substrate, room temperature, PBS pH 7.4; read-out: IC50
`Cc1cc(C(=O)Nc2cccc3ncccc23)n[nH]1` [Example 7, 5-Methylpyrazole-3-carboxylic acid quinolin-5-ylamide] was tested, and the IC50 was 0.42 µM.
`CCOC(=O)c1c(NC(=O)c2cc[nH]n2)sc2c1CCCC2` [Example 56, 2-[(Pyrazole-3-carbonyl)amino]-4,5,6,7-tetrahydrobenzo[b]thiophene-3-carboxylic acid ethyl ester] showed an IC50 of 0.076 µM.
For `O=C(Nc1ccnc2ccc(Br)cc12)c1cc[nH]n1` [Example 63, Pyrazole-3-carboxylic acid (6-bromoquinolin-4-yl)amide], the IC50 was 0.682 µM.
Molecule `O=C(Nc1cccc2cccnc12)c1cc[nH]n1` [Example 59, Pyrazole-3-carboxylic acid quinolin-8-ylamide] has an IC50 of 0.465 µM.
`O=C(Nc1cccc2[nH]ccc12)c1cc(Cl)[nH]n1` [Example 48, 5-Chloropyrazole-3-carboxylic acid indol-4-ylamide] was tested, and the IC50 was 0.211 µM.
`O=C(Nc1cccc2c1OC(F)(F)O2)c1cc[nH]n1` [Example 60, Pyrazole-3-carboxylic acid (2,3-(difluoromethylenedioxy)phenyl)amide] gave an IC50 of 0.39 µM.
